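Protocol summary: plate cells (96-well), add compound at 5 concentrations, incubate 48 h, interpolate endpoints linearly. GI50 marks 50% less growth. Definition used: TGI = concentration required for complete inhibition of growth.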
The molecules below were run on MDA-MB-468 breast (assay: growth of human tumour cells (NCI), 48 h).
In the case of `CC(=O)/C(=C\c1ccc(Cl)cc1)c1ccccc1`, the GI50 is reported as 0.0361 µM and the TGI is reported as > 100 µM.
With `C/C(=C\C(=O)O[C@H]1[C@@H]2[C@H](C)CC[C@H]2[C@]2(C)O[C@@]1(C1CCCCC1)C[C@H]2OC(=O)CO)c1ccccc1` the GI50 was 6.7 µM and the TGI was 13.4 µM.
With `CCOC(=O)c1noc2c1CCc1c-2cn(Cc2ccc(OC)cc2)c1-c1cc(OC)c(OC)c(OC)c1` the GI50 was 5.62 µM and the TGI was > 100 µM.
`CCC(=C(c1ccc(OCCN2CCCCC2)cc1)c1ccc(OCCN2CCCCC2)cc1)c1ccc(Cl)cc1` was tested, and the GI50 was 3.33 µM and the TGI was > 16.7 µM.
In the case of `O=C1C=C(Nc2ccccc2)c2ccccc2C1=O`, the GI50 is reported as 2.04 µM and the TGI is reported as 5.94 µM.
Work on `CC(C)=CCc1cc2c(cc1O)C1=C(C(=O)C3=C(NCCS3(=O)=O)C1=O)C(C=C(C)C)O2` (centres undefined) yielded a GI50 of 3.27 µM and a TGI of 12.8 µM.
In the case of `Cn1ncnc1[C@@H]1c2n[nH]c(=O)c3cc(F)cc(c23)N[C@H]1c1ccc(F)cc1`, the GI50 is reported as > 100 µM and the TGI is reported as > 100 µM.
In the case of `CN1CCN(Cc2ccc(NC(=O)c3cncc(C#Cc4cnc(N)c5ncccc45)c3)cc2C(F)(F)F)CC1`, the GI50 is reported as 0.368 µM and the TGI is reported as 1.68 µM.
`COc1ccc2c(c1)[C@@H](NC(C)=O)CCc1cc(OC)c(OC)c(OC)c1-2` was tested, and the GI50 was 0.0698 µM and the TGI was > 100 µM.
Molecule `CC1=C(CCCOC(=O)[C@H](N)CC(C)C)C2=C(C)C3(CC3)[C@@](C)(O)C(=O)C2=C1` has a GI50 of 1.37 µM and a TGI of 4.6 µM.
`Nc1c(C(=O)Nc2cccc(Cl)c2)sc2nc3c(cc12)C(=O)CCC3` was tested, and the GI50 was 0.0879 µM and the TGI was 1.3 µM.
Molecule `O=C(/C=C\c1ccc(O)c(O)c1)c1ccccc1O` has a GI50 of 2.98 µM and a TGI of 16.7 µM.
`CNC(=O)Oc1cc(C(C)C)ccc1Sc1ccc(C(C)C)cc1OC(=O)NC` was tested, and the GI50 was 2.34 µM and the TGI was 9.89 µM.
Molecule `CCN1CCN(CCC(=O)Nc2cccc(-n3cc(-c4ccncc4)c(-c4ccc(Cl)c(OC)c4)n3)c2)CC1` has a GI50 of 0.325 µM and a TGI of 1.41 µM.
In the case of `O=C1NC(=O)C(c2c[nH]c3ccccc23)=C1c1c[nH]c2ccccc12`, the GI50 is reported as 8.28 µM and the TGI is reported as > 25 µM.
Molecule `COc1ccc(C2=NN(C(N)=S)C(c3ccc4c(c3)OCO4)C2)cc1` (centres undefined) has a GI50 of 2.68 µM and a TGI of 11 µM.
For `O=[N+]([O-])c1ccc(C2=NCCO2)cc1`, the GI50 was > 100 µM and the TGI was > 100 µM.
Work on `Cc1[nH]nc2ccc(-c3nc4cnc(N5CCN(C)CC5)cn4c3Nc3ccc(F)cc3Br)cc12` yielded a GI50 of 1.57 µM and a TGI of 3.31 µM.
Molecule `N#CC1=C(N)Oc2c(sc3c(Br)cccc23)C1c1ccc([N+](=O)[O-])cc1` (centres undefined) has a GI50 of 0.318 µM and a TGI of 7.27 µM.
`COc1cccc2c1nc(C(F)F)n2-c1nc(-c2ccc(NS(=O)(=O)CCN(C)C)cc2)nc(N2CCOCC2)n1` gave a GI50 of 0.0711 µM and a TGI of 0.492 µM.
In the case of `COC(=O)[C@@H](C)C[C@H](Cc1ccccc1)NC(=O)c1nc([C@@H](C[C@H](C(C)C)N(C)C(=O)[C@@H](NC(=O)[C@H]2C[C@H](O)CCN2C)C(C)C)OC(C)=O)sc1C(C)C`, the GI50 is reported as < 0.00111 µM.
In the case of `O=c1[nH]c2ccccc2n1C1CCNCC1`, the GI50 is reported as > 100 µM and the TGI is reported as > 100 µM.
`O=S(=O)(NCCCNc1cc(-c2cn(-c3ccccc3)nc2-c2cccc(O)c2)ccn1)c1ccc(C(F)(F)F)cc1` showed a GI50 of 1.8 µM and a TGI of 5.55 µM.
Work on `O=C(CCCc1ccc(N(CCCl)CCCl)cc1)NCc1ccccc1` yielded a GI50 of 2.75 µM and a TGI of 10.3 µM.
Work on `CC(C)=CCC/C(C)=C/CC/C(C)=C/CSC[C@H](NC(=O)CCCCCN1CCN(C)CC1)C(=O)NC1CCCCCC1` yielded a GI50 of 2.06 µM and a TGI of 4.89 µM.
